Reference: BigSolDB 2.1

Cc1c(C(=O)O)cccc1[N+](=O)[O-]
solubility (mole fraction)
Conditions	in 1,4-dioxane	in 2-butanone	in acetone	in acetonitrile	in ethanol	in ethyl acetate	in isopropanol	in methanol	in n-propanol
283.15 K	–	0.0528	0.0601	0.00849	0.0149	0.0312	0.0129	0.0162	0.0111
285.65 K	0.0704	0.0544	0.0614	0.00919	0.0165	0.0325	0.0145	0.018	0.0127
288.15 K	0.0718	0.056	0.0627	0.00993	0.0186	0.0341	0.0164	0.0202	0.0144
290.65 K	0.0734	0.0576	0.0641	0.0107	0.0207	0.0357	0.0184	0.0225	0.0162
293.15 K	0.0749	0.0592	0.0655	0.0117	0.0232	0.0373	0.0206	0.0255	0.0182
295.65 K	0.0764	0.0609	0.0668	0.0127	0.0259	0.039	0.023	0.0286	0.0205
298.15 K	0.0779	0.0626	0.0684	0.0138	0.0286	0.0406	0.0259	0.0319	0.0231
300.65 K	0.0796	0.0645	0.0699	0.0149	0.0317	0.0423	0.0289	0.0354	0.0258
303.15 K	0.0814	0.0664	0.0715	0.0161	0.0351	0.0442	0.0324	0.0392	0.0291
305.65 K	0.0831	0.0683	0.0728	0.0172	0.0388	0.046	0.0362	0.0436	0.0326
308.15 K	0.0847	0.0703	0.0745	0.0186	0.043	0.0478	0.0396	0.0483	0.0365
310.65 K	0.0865	0.0722	0.0761	0.0199	0.0475	0.0499	0.0438	0.0529	0.0404
313.15 K	0.0884	0.0741	0.0777	0.0211	0.0524	0.0518	0.0485	0.0579	0.0455
315.65 K	0.0902	0.0764	0.0793	0.0226	0.0579	0.054	0.0533	0.0634	0.0506
318.15 K	0.0921	0.0786	0.0808	0.0242	0.064	0.056	0.0587	0.0685	0.0556
